Measurements from ChEMBL document CHEMBL1130901, “Halohydrin analogues of cryptophycin 1: synthesis and biological activity” (Bioorg Med Chem Lett, 1998).

Experiments:
[1] = Half life in phosphate buffer at pH 7.4; assay type: ADME
[2] = Half life in PEM buffer at pH 7.4; assay type: ADME
[3] = Tested in vitro for the concentration that reduces the amount of pelleted protein by 50% in microtubule assembly assay.; assay type: functional

| half-life [1] [min] | half-life [2] [min] | Structure (SMILES) | ED50 [3] [mM] |
| --- | --- | --- | --- |
| 11 | 3.7 | COc1ccc(C[C@H]2NC(=O)/C=C/C[C@@H]([C@H](C)[C@@H](O)[C@@H](Br)c3ccccc3)OC(=O)[C@H](CC(C)C)OC(=O)[C@H](C)CNC2=O)cc1Cl | – |
| 2.5 | < 1 | COc1ccc(C[C@H]2NC(=O)/C=C/C[C@@H]([C@H](C)[C@@H](O)[C@@H](I)c3ccccc3)OC(=O)[C@H](CC(C)C)OC(=O)[C@H](C)CNC2=O)cc1Cl | – |

| Structure (SMILES) | half-life [1] [min] | half-life [2] [min] | ED50 [3] [mM] |
| --- | --- | --- | --- |
| COc1ccc(C[C@H]2NC(=O)/C=C/C[C@@H]([C@H](C)[C@@H](O)[C@@H](Cl)c3ccccc3)OC(=O)[C@H](CC(C)C)OC(=O)[C@H](C)CNC2=O)cc1Cl | 660 | 75 | 7.5 |
